Results taken from the Deep4Chem optical property database.
One block for each compound: values may come before it.

Assay: solvent given as SMILES

Compound: Cc1cc(C)c(B(c2ccccc2N(c2ccccc2)c2ccccc2)c2c(C)cc(C)cc2C)c(C)c1
emission maximum (in CC(C)=O): 532.95 nm
emission maximum (in Cc1ccccc1): 498 nm
emission maximum (in ClCCl): 518.5 nm

Compound: F[B-]1(F)N2C(=Nc3cccc4cccc2c34)c2cccc[n+]21
emission maximum (in CC#N): 413 nm
emission maximum (in CO): 383 nm
emission maximum (in CS(C)=O): 498 nm
emission maximum (in Cc1ccccc1): 384 nm

Compound: N#Cc1ccc(C[C@H](N)C(=O)O)cc1
emission maximum (in C1CCOC1): 292.44 nm
emission maximum (in CCO): 292.99 nm
emission maximum (in CO): 292.44 nm
emission maximum (in O): 293.54 nm
emission maximum (in O=CO): 294.16 nm

Compound: CC1=C(c2cccs2)C(C)=[N+]2C1=C(c1ccc(OS(=O)(=O)c3ccc([N+](=O)[O-])cc3[N+](=O)[O-])cc1)c1c(C)c(-c3cccs3)c(C)n1[B-]2(F)F
emission maximum (in CO): 609 nm
emission maximum (in Cc1ccccc1): 608 nm
emission maximum (in ClCCl): 607 nm

Compound: Oc1ccccc1-c1nc2c3ccccc3c3ccccc3c2n1-c1ccccc1
emission maximum (in Cc1ccccc1): 369 nm

Compound: CC1=N/C(=C\c2ccncc2)C(=O)N1C
emission maximum (in C1COCCO1): 439 nm
emission maximum (in CC#N): 452 nm
emission maximum (in CCO): 453 nm
emission maximum (in CCOC(C)=O): 442 nm
emission maximum (in O): 464 nm

Compound: C(=C\c1cc(/C=C/c2ccc(N(c3ccccc3)c3ccccc3)cc2)nc(/C=C/c2ccc(N(c3ccccc3)c3ccccc3)cc2)n1)/c1ccc(N(c2ccccc2)c2ccccc2)cc1
emission maximum (in C1CCOC1): 514 nm
emission maximum (in CC#N): 589 nm
emission maximum (in CC(C)=O): 555 nm
emission maximum (in CCCCCCC): 460 nm
emission maximum (in CS(C)=O): 586 nm
emission maximum (in Cc1ccccc1): 479 nm
emission maximum (in ClCCl): 544 nm

Compound: N#Cc1c(-n2c3ccccc3c3cc(Br)ccc32)c(C#N)c(-n2c3ccccc3c3cc(Br)ccc32)c(-n2c3ccccc3c3cc(Br)ccc32)c1-n1c2ccccc2c2cc(Br)ccc21
emission maximum (in Cc1ccccc1): 515 nm

Compound: CCCCCCCCCCCCC(CCCCCCCCCC)Cn1c2cc(/C=C/C=C/c3nc4ccccc4s3)c3cccc4c5cccc6c(/C=C/C=C/c7nc8ccccc8s7)cc1c(c65)c2c34 (stereo not given)
emission maximum (in C1CCCCC1): 588 nm
emission maximum (in CC#N): 608 nm
emission maximum (in Cc1ccccc1): 604 nm
emission maximum (in ClCCl): 612 nm

Results, then the compound that gave them:

emission maximum (in C1CCCCC1): 430 nm
Compound: Cc1cc(C)c(B2c3cc(C(C)(C)C)cc4ccc5ccc6cc(C(C)(C)C)cc2c6c5c34)c(C)c1

emission maximum (in ClC(Cl)Cl): 383 nm
Compound: CCC[Si](CCC)(CCC)c1cc2ccc3cccc4ccc(c1C(=O)NC(C)(C)C)c2c34

emission maximum (in C1CCCCC1): 642 nm
emission maximum (in CCOC(C)=O): 670 nm
Compound: CC1=[N+]2C(=C(c3ccc(Br)cc3)c3ccc(C)n3[B-]2(F)F)C=C1c1cc2n(c1)[B-](F)(F)[N+]1=CC=CC1=C2c1c(C)cc(C)cc1C

emission maximum (in ClC(Cl)Cl): 564 nm
Compound: Oc1ccc(C2=[N+]3C(=C(c4ccccc4)c4cccn4[B-]3(F)F)C=C2)cc1

emission maximum (in ClCCl): 506 nm
Compound: N#Cc1ccc(-c2cn3cc(-c4ccccc4)c[n+]3[n-]2)cc1

emission maximum (in CO): 493 nm
Compound: Brc1cnc(-c2ccc(N(c3ccccc3)c3ccccc3)cc2)s1

emission maximum (in ClCCl): 645 nm
Compound: CN(C)c1ccc(C2=C3C=C(c4ccc(C=O)cc4)S[C@]34c3ccccc3[C@H]2c2ccccc24)cc1

emission maximum (in ClC(Cl)Cl): 518 nm
Compound: O=Cc1ccc(C#CC(C#Cc2ccc(C=O)o2)=Cc2ccc(C=C(C#Cc3ccc(C=O)o3)C#Cc3ccc(C=O)o3)cc2)o1

emission maximum (in C1CCOC1): 656 nm
Compound: C[Si](C)(C)c1ccc(-c2ccc(-c3ccc(-c4ccc(-c5ccc([Si](C)(C)C)s5)s4)c4nsnc34)s2)s1

emission maximum (in CS(C)=O): 492 nm
Compound: C(/C=C/Nc1ccccc1)=[NH+]c1ccccc1

emission maximum (in ClCCl): 652 nm
Compound: CCCCN1C(=O)c2cc(Oc3ccc(C(C)(C)C)cc3)c3c4c(Oc5ccc(C(C)(C)C)cc5)cc5c(=O)[nH]/c(=C\c6ccccn6)c6cc(Oc7ccc(C(C)(C)C)cc7)c(c7c(Oc8ccc(C(C)(C)C)cc8)cc(c2c37)C1=O)c4c56

emission maximum (in CC#N): 538 nm
emission maximum (in CCCCCC): 500 nm
emission maximum (in CO): 548 nm
emission maximum (in c1ccccc1): 514 nm
Compound: O=c1oc2cc3ccccc3cc2nc1-c1ccccc1

emission maximum (in ClC(Cl)Cl): 392 nm
Compound: O=C1[C@@H]2[C@H](C(=O)N1c1cccc3cc4ccccc4cc13)[C@@H]1C=C[C@H]2C1
